Source: US10898592B2, “Compositions and methods for reducing the risk of post-imaging pancreatitis” (University Of Pittsburgh—Of The Commonwealth System Of …, priority 2015, dated 2021)

Assays:
[1] = test system: calcineurin (NFAT-luciferase); assay: NFAT-luciferase activity assay (calcineurin activation), mouse primary acinar cells; format: cell-based; conditions: 30 min pre-treatment; FK506 24 μM; CsA 16 μM; BAPTA-AM 64 μM
Method: (§1) NFAT-luciferase activity assay. Acinar cells were infected with Ad-NFAT-luciferase following a previously described procedure^10,15,16. The construct includes a luciferase gene placed downstream of an IL-4 promoter which contains nine tandem NFAT binding sites^10. Acinar cells were incubated with the NFAT-driven luciferase adenovirus for 1.5 hr prior to stimulation. All of the stated inhibitors were added for 30 min prior to stimulation with RC. NFAT-luciferase was measured using the luciferase assay system. Briefly, cells were spun at 1,000 rpm for 5 min, washed with PBS, and lysed using reporter lysis 5× buffer (Promega #E397A, Madison, Wis.). Samples were vortexed and spun at 12,000 g for 2 min. Supernatant was plated, and luminescence was measured using a Synergy H1 plate reader (BioTek, Winooski, Vt.) and normalized to total protein.

[2] = test system: calcineurin (NFAT-luciferase); assay: NFAT-luciferase activity assay, human acinar cells; format: cell-based
Method: as §1

[3] = test system: calcineurin (NFAT-luciferase); assay: NFAT-luciferase activity assay, AR42J cells; format: cell-based; conditions: pretreatment; FK506 24 μM; CsA 16 μM; U73122 5 μM; 2-APB 100 μM; BAPTA 64 μM
Method: as §1

NF-κB = assay: NF-κB-luciferase activity assay, AR42J cells; format: cell-based; conditions: U73122 5 μM; 2-APB 100 μM; BAPTA 64 μM
Method: NF-κB-luciferase activity assay. AR42J cells were differentiated towards an acinar phenotype by administering dexamethasone (100 nM) for 48-72 hr^17. AR42J cells were infected with Ad-NF-κB luciferase 16 h prior to stimulation using a previously described method^12. Following a wash with DMEM/F12 medium, acinar cells were evenly distributed in a 48-well plate and incubated for 30 min at 37° C. They were incubated with RC at varying concentrations and times. NF-κB-luciferase was measured using a commercially available luciferase assay (Promega, Madison, Wis.). Briefly, cells were spun at 1,000 rpm for 5 min, washed with PBS, and lysed using reporter lysis 5× buffer (Promega, catalog no. E397A). Samples were vortexed and spun at 12,000×g for 2 min. The supernatant was plated, and luminescence was measured using a Synergy H1 plate reader (BioTek, Winooski, Vt.) and normalized to total […].

primary acinar cells = assay: Cell necrosis assay (propidium iodide uptake), primary acinar cells; format: cell-based, mouse; conditions: 6 hr incubation; U73122 5 μM; 2-APB 100 μM; BAPTA 64 μM; IKK-2 20 μM; FK506 24 μM; CsA 16 μM
Method: Cell necrosis assay. Acinar cells were incubated in a 48-well plate with 50 μg/ml of propidium iodide (PI) for 30 min prior to addition of RC. Fluorescence was measured at 536 nm excitation and 617 nm emission wavelengths over time a time course of up to 6 hr. Fluorescence was measured after cell lysis with 0.5% Triton-X 100 was used to normalize the results relative to total DNA.

CC(=O)OCOC(=O)CN(CC(=O)OCOC(C)=O)c1ccccc1OCCOc1ccccc1N(CC(=O)OCOC(C)=O)CC(=O)OCOC(C)=O [BAPTA, BAPTA-AM]
effect on RC (9%)-induced rise in NFAT-luciferase [1]: completely reduced | effect on RC (25%)-induced NFAT-luciferase activity [2]: prevented | effect on RC (6%)-induced NFAT-luciferase activity [3]: prevented | effect on RC-induced NF-κB-luciferase levels (NF-κB): reduced | effect on RC (12%)-induced acinar cell injury (PI uptake) (primary acinar cells): prevented
